Experimental data: patent publication US12660819B2, “Herbicidal derivatives” (SYNGENTA CROP PROTECTION AG, priority 2020, dated 2026)

Columns and labels:
Type in all cases: in vivo
[1] = tested on: Setaria faberi (SETFA); assay: Pre-emergence Test (glasshouse, percentage damage to the plant); conditions: 1000 g/ha unless otherwise stated, five-point scale
[2] = tested on: Abutilon theophrasti (ABUTH); assay: as above; conditions: 1000 g/ha unless otherwise stated, five-point scale
[3] = tested on: Ipomoea hederacea (IPOHE); assay: as above; conditions: 1000 g/ha unless otherwise stated, five-point scale
[4] = tested on: Zea mays (ZEAMX); assay: as above; conditions: 1000 g/ha unless otherwise stated, five-point scale
[5] = tested on: Zea mays (ZEAMX); assay: Post-emergence Test (glasshouse, percentage damage to the plant); conditions: post-emergence spray, 1000 g/ha unless otherwise stated, evaluated after 13 days
In short: (§1)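 Damage was rated 13 days after treatment and expressed on a five-point scale: 5=81-100%, 4=61-80%, 3=41-60%, 2=21-40%, 1=0-20%. Spray was applied at 1000 g/ha unless otherwise stated, from acetone/water (50:50) with 0.5% Tween 20, to sown pots.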

[6] = tested on: Setaria faberi (SETFA); assay: as above; conditions: post-emergence spray, 1000 g/ha unless otherwise stated, evaluated after 13 days
In short: as §1

[7] = tested on: Echinochloa crus-galli (ECHCG); assay: as above; conditions: post-emergence spray, 1000 g/ha unless otherwise stated, evaluated after 13 days
In short: (§2)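 Percentage damage to the plant, assessed 13 days after application and scored 1–5 in 20% bands. Pots sown in standard soil received compound at 1000 g/ha unless otherwise stated, sprayed under 24/16 °C, 14 h light, 65% humidity.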

[8] = tested on: Abutilon theophrasti (ABUTH); assay: as above; conditions: post-emergence spray, 1000 g/ha unless otherwise stated, evaluated after 13 days
In short: as §2

[9] = tested on: Amaranthus retoflexus (AMARE); assay: as above; conditions: post-emergence spray, 1000 g/ha unless otherwise stated, evaluated after 13 days
In short: as §2

[10] = tested on: Ipomoea hederacea (IPOHE); assay: as above; conditions: post-emergence spray, 1000 g/ha unless otherwise stated, evaluated after 13 days
In short: as §1

[11] = tested on: Echinochloa crus-galli (ECHCG); assay: Pre-emergence Test (glasshouse, percentage damage to the plant); conditions: 1000 g/ha unless otherwise stated, five-point scale
[12] = tested on: Amaranthus retoflexus (AMARE); assay: as above; conditions: 1000 g/ha unless otherwise stated, five-point scale

SMILES | percentage damage to the plant, SETFA [1] | percentage damage to the plant, ABUTH [2] | percentage damage to the plant, IPOHE [3] | percentage damage to the plant, ZEAMX [4] | Post-emergence Test ZEAMX, percentage damage to the plant (five-point scale) [5] | Post-emergence Test SETFA, percentage damage to the plant (five-point scale) [6] | Post-emergence Test ECHCG, percentage damage to the plant (five-point scale) [7] | Post-emergence Test ABUTH, percentage damage to the plant (five-point scale) [8] | Post-emergence Test AMARE, percentage damage to the plant (five-point scale) [9] | Post-emergence Test IPOHE, percentage damage to the plant (five-point scale) [10] | percentage damage to the plant, ECHCG [11] | percentage damage to the plant, AMARE [12]
CCn1c(C)c(-c2cccc(Cl)c2)c(=O)c(C(=O)O)c1-c1ccnc(Cl)c1 [Compound 144, 5-(3-chlorophenyl)-2-(2-chloro-4-pyridyl)-1-ethyl-6-methyl-4-oxo-pyridine-3-carboxylic acid] | 4 (4=61-80%) | 1 (1=0-20%) | 2 (2=21-40%) | 2 (2=21-40%) | 2 (2=21-40%) | 3 (3=41-60%) | 2 (2=21-40%) | 2 (2=21-40%) | 2 (2=21-40%) | 2 (2=21-40%) | 4 (4=61-80%) | 1 (1=0-20%)
CCn1c(C)c(-c2cccs2)c(=O)c(C(=O)O)c1-c1ccc(Cl)cc1 [Compound 165, 2-(4-chlorophenyl)-1-ethyl-6-methyl-4-oxo-5-(2-thienyl)pyridine-3-carboxylic acid] | 0 | 1 (1=0-20%) | 1 (1=0-20%) | 0 | 1 (1=0-20%) | 1 (1=0-20%) | 0 | 2 (2=21-40%) | 0 | 2 (2=21-40%) | 0 | 1 (1=0-20%)
CCn1c(C)c(-c2cc(Cl)nc(OC(C)C)c2)c(=O)c(C(=O)O)c1-c1ccc(Cl)c(Cl)c1 [Compound 69, 5-(2-chloro-6-isopropoxy-4-pyridyl)-2-(3,4-dichlorophenyl)-1-ethyl-6-methyl-4-oxo-pyridine-3-carboxylic acid] | 4 (4=61-80%) | 2 (2=21-40%) | 4 (4=61-80%) | 2 (2=21-40%) | 1 (1=0-20%) | 3 (3=41-60%) | 1 (1=0-20%) | 2 (2=21-40%) | 2 (2=21-40%) | 3 (3=41-60%) | 1 (1=0-20%) | 1 (1=0-20%)
CCOC(=O)c1c(-c2ccc(Br)cc2F)n(CC)c(C)c(-c2ccc(Cl)cc2)c1=O [Compound 137, ethyl 2-(4-bromo-2-fluoro-phenyl)-5-(4-chlorophenyl)-1-ethyl-6-methyl-4-oxo-pyridine-3-carboxylate] | 1 (1=0-20%) | 0 | 0 | 0 | 2 (2=21-40%) | 3 (3=41-60%) | 4 (4=61-80%) | 3 (3=41-60%) | 3 (3=41-60%) | 3 (3=41-60%) | 0 | 5 (5=81-100%)
CCn1c(C)c(-c2ccc(Cl)cc2C)c(=O)c(C(=O)O)c1-c1ccc(Cl)c(Cl)c1 [Compound 156, 5-(4-chloro-2-methyl-phenyl)-2-(3,4-dichlorophenyl)-1-ethyl-6-methyl-4-oxo-pyridine-3-carboxylic acid] | 4 (4=61-80%) | 2 (2=21-40%) | 1 (1=0-20%) | 0 | 4 (4=61-80%) | 4 (4=61-80%) | 4 (4=61-80%) | 4 (4=61-80%) | 3 (3=41-60%) | 4 (4=61-80%) | 5 (5=81-100%) | 1 (1=0-20%)
CCn1c(C)c(-c2ccc(Cl)cc2OC)c(=O)c(C(=O)O)c1-c1ccc(Cl)c(Cl)c1 [Compound 154, 5-(4-chloro-2-methoxy-phenyl)-2-(3,4-dichlorophenyl)-1-ethyl-6-methyl-4-oxo-pyridine-3-carboxylic acid] | 4 (4=61-80%) | 3 (3=41-60%) | 3 (3=41-60%) | 2 (2=21-40%) | 3 (3=41-60%) | 4 (4=61-80%) | 4 (4=61-80%) | 4 (4=61-80%) | 4 (4=61-80%) | 4 (4=61-80%) | 5 (5=81-100%) | 1 (1=0-20%)
CCn1c(C)c(-c2ccc(OC)c(F)c2)c(=O)c(C(=O)O)c1-c1ccc(Cl)c(Cl)c1 [Compound 102, 2-(3,4-dichlorophenyl)-1-ethyl-5-(3-fluoro-4-methoxy-phenyl)-6-methyl-4-oxo-pyridine-3-carboxylic acid] | 4 (4=61-80%) | 3 (3=41-60%) | 3 (3=41-60%) | 1 (1=0-20%) | 1 (1=0-20%) | 4 (4=61-80%) | 3 (3=41-60%) | 3 (3=41-60%) | 3 (3=41-60%) | 3 (3=41-60%) | 2 (2=21-40%) | 2 (2=21-40%)
CCOC(=O)c1c(-c2ccc(F)cc2F)n(CC)c(C)c(-c2ccc(Cl)cc2)c1=O [Compound 134, ethyl 5-(4-chlorophenyl)-2-(2,4-difluorophenyl)-1-ethyl-6-methyl-4-oxo-pyridine-3-carboxylate] | 0 | 1 (1=0-20%) | 0 | 0 | 3 (3=41-60%) | 4 (4=61-80%) | 4 (4=61-80%) | 3 (3=41-60%) | 3 (3=41-60%) | 3 (3=41-60%) | 0 | 1 (1=0-20%)
